Experimental data from patent US6642215B2 (Leo Pharma A/S, priority 2001, dated 2003).
Like-named read-outs stand apart in the source and are kept apart here.

Legend:
[1] = target: T1, IKK (Homo sapiens, UniProt O14920); experiment: In vitro kinase assay: IKK immunoprecipitated from LPS-stimulated THP-1 cells, GST-IκBα phosphorylation; assay type: biochemical; settings: GST-IκB phosphorylated by activated IKK pretreated with the compound
T1 construct: IKK was immunoprecipitated with an IKKα/β antibody; endogenous in cells; host or cells: THP-1 cells stimulated with 1 μg/ml LPS; whole cell extract immunoprecipitated with an IKKα/β antibody (Santa Cruz)
T1 sequence (O14920 whole entry): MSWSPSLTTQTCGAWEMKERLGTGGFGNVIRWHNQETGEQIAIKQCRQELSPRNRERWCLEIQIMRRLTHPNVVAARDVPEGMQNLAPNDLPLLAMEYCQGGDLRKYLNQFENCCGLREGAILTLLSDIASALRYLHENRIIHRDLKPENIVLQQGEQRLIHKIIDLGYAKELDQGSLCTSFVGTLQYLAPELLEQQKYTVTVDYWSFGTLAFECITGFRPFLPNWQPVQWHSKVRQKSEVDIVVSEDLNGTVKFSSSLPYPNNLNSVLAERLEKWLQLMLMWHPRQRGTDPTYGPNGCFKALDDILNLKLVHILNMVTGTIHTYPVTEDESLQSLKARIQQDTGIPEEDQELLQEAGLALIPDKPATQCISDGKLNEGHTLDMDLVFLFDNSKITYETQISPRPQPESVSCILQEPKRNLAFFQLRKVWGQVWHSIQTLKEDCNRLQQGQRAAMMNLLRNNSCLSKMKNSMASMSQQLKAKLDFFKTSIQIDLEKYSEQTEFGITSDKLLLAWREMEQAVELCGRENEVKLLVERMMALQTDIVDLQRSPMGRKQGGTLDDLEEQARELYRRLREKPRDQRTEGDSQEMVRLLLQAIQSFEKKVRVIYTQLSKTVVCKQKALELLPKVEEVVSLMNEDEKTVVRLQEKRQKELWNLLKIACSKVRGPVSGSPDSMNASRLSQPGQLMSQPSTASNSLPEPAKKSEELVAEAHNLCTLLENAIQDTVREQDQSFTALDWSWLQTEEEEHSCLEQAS
T1 sequence (O15111 whole entry partner): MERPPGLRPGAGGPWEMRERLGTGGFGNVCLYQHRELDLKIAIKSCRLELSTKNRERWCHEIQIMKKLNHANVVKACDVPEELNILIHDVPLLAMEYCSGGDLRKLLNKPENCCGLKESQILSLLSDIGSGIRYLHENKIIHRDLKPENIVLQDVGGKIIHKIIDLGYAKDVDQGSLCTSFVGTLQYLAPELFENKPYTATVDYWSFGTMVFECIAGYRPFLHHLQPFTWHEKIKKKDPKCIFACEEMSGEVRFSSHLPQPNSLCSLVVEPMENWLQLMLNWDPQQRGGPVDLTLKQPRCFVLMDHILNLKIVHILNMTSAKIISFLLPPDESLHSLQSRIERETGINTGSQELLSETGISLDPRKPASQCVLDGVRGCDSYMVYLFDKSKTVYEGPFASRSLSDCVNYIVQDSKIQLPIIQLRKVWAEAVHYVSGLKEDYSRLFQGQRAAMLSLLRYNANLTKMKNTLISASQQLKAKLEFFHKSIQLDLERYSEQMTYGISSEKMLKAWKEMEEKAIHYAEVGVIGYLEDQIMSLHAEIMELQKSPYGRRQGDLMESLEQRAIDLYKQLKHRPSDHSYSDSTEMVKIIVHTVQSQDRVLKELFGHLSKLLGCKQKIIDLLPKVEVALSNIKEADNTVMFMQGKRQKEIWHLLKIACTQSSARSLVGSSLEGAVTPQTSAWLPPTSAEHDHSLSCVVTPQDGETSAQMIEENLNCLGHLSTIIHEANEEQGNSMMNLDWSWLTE
T1 sequence (Q9Y6K9 whole entry partner): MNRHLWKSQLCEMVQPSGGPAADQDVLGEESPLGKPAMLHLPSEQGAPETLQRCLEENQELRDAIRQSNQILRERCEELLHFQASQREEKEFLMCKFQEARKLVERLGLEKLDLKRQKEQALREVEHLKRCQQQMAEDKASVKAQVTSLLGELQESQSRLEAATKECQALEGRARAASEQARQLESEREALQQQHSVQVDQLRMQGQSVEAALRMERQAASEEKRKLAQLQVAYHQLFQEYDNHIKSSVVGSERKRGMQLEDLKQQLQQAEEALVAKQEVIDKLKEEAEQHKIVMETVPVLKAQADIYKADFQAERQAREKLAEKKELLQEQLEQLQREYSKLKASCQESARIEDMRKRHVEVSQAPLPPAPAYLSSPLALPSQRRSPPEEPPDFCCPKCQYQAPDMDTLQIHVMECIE
Procedure: In vitro kinase assay: THP-1 cells (1×10^7 cells) were stimulated with 1 μg/ml LPS for the indicated time periods and whole cell extracts were prepared as described above. IKK was immunoprecipitated with an IKKα/β antibody (raised against amino acid 470-755 of IKKβ of human origin but partially cross-reactive with IKKα as detected by Western Blotting (Santa Cruz Biotechnology Inc.). Compound A was diluted in kinase buffer (25 mM HEPES pH 7.5, 10 mM magnesium acetate, 50 μM ATP) at the appropriate concentrations. The compound was added to the beads for 30 min. at 30° C. The kinase reaction was started by adding 2.5 μg of the GST-IκBα substrate (Santa Cruz Biotechnology Inc.) together with 2 μCi γ-^32P-ATP (Amersham Pharmacia Biotech) per sample. The reaction was allowed to proceed for 30 min. at 30° C., and the IKK activity was measured by the amount of radioactive-labelled GST-IκBα bands, quantified by the STORM860 Phospho-Imager.
A general problem with the kinase assay is prestimulation of the kinase. To achieve a value for the zero-point, the LPS-activated IKK mixture was incubated with 20 μM myricetin (Sigma-Aldrich), which is a known IKKβ inhibitor (S. H. Tsal et al., J. Cell Biochem. 74, 1999, pp. 606-615). This value was subtracted from the all other values. All data are expressed as percentage of the activity of the LPS-activated IKKβ kinase treated with 0.1% DMSO.

[2] = tested on: NYH SCLC cells; experiment: DNA synthesis (tritiated thymidine incorporation) in NYH SCLC cells; assay type: cell-based; settings: incorporation of tritiated thymidine in NYH SCLC cells; read-out: NYH proliferation in vitro (IC50 nM)
Procedure: DNA synthesis: NYH SCLC, HT-1080, Colo-320, PC-3 and H460 cells (7.5×10^3 cells/ml) were seeded in tissue culture vessels and the test compound were added 2 h after plating. Following an incubation for 144 h tritiated thymidine (5 CI/mmol, Amersham Pharmacia Biotech) was added to the culture at the concentration of 1 μCi/ml, and the cells were incubated for additional 4 h. The incorporated thymidine was measured with a β-counter. Each compound concentration was tested in triplicate.

[3] = tested on: NYH Xenografts; experiment: NYH xenografts in nude mice, tumour growth; assay type: in vivo, NMRI nu/nu mice; settings: nude mice with NYH SCLC tumours, 14 days of treatment with 20 mg/kg
Procedure: All of the animal experiments were conducted according to the guidelines and ethical standards of the Danish Committee for Animal Experiments. Female NMRI nu/nu mice 6 weeks of age were purchased from M&B (Ry, Denmark). The mice were allowed an acclimatisation period of 1-3 weeks before start of the experiments. The nude mice were housed in Scantainers under semi-sterile conditions and all handling of mice was performed in a laminar flow bench.
NYH Xenografts. NMRI nu/nu mice were injected with 1×10^7 cells in 0.2 ml media s.c. in both flanks and tumour growth was measured twice weekly. The tumour area was used as expression of the tumour size and was calculated from two perpendicular diameters measured with a digital caliper. Compound A was given for fourteen consecutive days by oral gavage from day 4-6 when the tumour size was 24-30 mm^2. Each treatment group consisted of 10 mice.
Statistical Methods In the animal models, tumour sizes were expressed by the mean of the trends in each treatment group. The trend is the linear increment or tumour size, where tumour size is the square root of the (mean) area of the tumour(s). Comparison with controls was expressed as T/C % and calculated as follows:
A=(overall mean tumour size at baseline+mean trend of treatment*intended days of treatment)
B=(overall mean tumour size at baseline+mean trend of control*intended days of treatment)
Overall mean tumour size at baseline=pooling all treatments this is the mean of all baseline values. For each mouse the baseline value is calculated as the square root of the (mean) area of the tumour(s).
Significance was tested with the Bonferroni correction. This correction is a method for adjusting (lowering) the significance level so the overall finding of one significant difference due to chance is around 5 percent.

[4] = tested on: NF-κB; experiment: NF-κB-dependent luciferase assay in HT-1080 cells, TNF-α stimulation; assay type: cell-based, human; settings: TNF-α 50 ng/ml, up to 24 h
Procedure: (§1) The NF-κB-luciferase reporter plasmid (pBIIX) and pRL-TK control vector described in Example 1 were used for the luciferase assay,
The HT-1080 cells were seeded at a density of 3×10^4 cells/cm^2 in 6 well-plates. The following day, the cells were co-transfected with construct DNA and pRL-TK vector using FuGene Transfection Reagent. A mixture of 10 μl Fugene and 90 μl serum free medium (per well) was prepared and Incubated for 5 min at room temperature. Then, this mixture was transferred to a mixture of construct DNA (1.25 μg per well) and pRL-TK vector (0.25 μg per well), gently mixed, incubated for 15 min at room temperature and added to the cells. The cells were treated at 37° C. with compound A (10^−12−10^−5 M) or DMSO for 24 h before stimulation with TNF-α (50 ng/ml) for 6 h.
(§2) The cell lysate was assayed for luciferase activity using the Dual luciferase kit as described by the manufacturer (Promega). All transfections were performed in triplicate. Firefly luciferase activity was corrected for differences in transfection efficiency by normalizing it to the measured Renilla luciferase activity.
(§3) NF-κB activity was measured by the luciferase assay described in Example 1.

[5] = tested on: NF-κB; experiment: NF-κB-dependent luciferase assay in Colo-320 cells, TNF-α stimulation; assay type: cell-based, human; settings: TNF-α 50 ng/ml, up to 24 h
Procedure: as §1
The Colo-320 cells were seeded with a density of 5×10^4 cells/cm^2 in 6-well plates (NUNC). The following day, the cells were co-transfected with construct DNA and pRL-TK using FuGene Transfection Reagent (Boehringer Mannheim). A mixture of 5 μl Fugene and 95 μl serum free medium (per well) was prepared and incubated for 5 min at room temperature. Then, the mixture was transferred to a mixture of construct DNA (2.5 μg per well) and pRL-TK vector (0.25 μg per well), gently mixed, incubated for 15 min at room temperature and added to the cells. The cells were treated at 37° C. with compound A (10^−12−10^−5 M) or DMSO for 24 h before stimulation with TNF-α (50 ng/ml) for 6 h.
as §2, §3

[6] = tested on: NF-κB; experiment: NF-κB-dependent luciferase assay in PC-3 cells, TNF-α stimulation; assay type: cell-based, human; settings: TNF-α 50 ng/ml, up to 24 h
Procedure: as §1
The PC-3 cells were seeded at a density of 3×10^4 cells/cm^2 in 6 well-plates. The following day, the cells were co-transfected with construct DNA and pRL-TK vector using DOTAP liposomal transfection reagent (Boehringer Mannheim). The construct DNA (4.0 μg per well), the pRL-TK vector (1.0 μg per well), DOTAP (16.7 μl per well) and dH2O (total volume 100 μl per well) were carefully mixed and incubated for 15 min at 37° C. A growth medium without serum (900 μl per well) was added and the transfection mixture (1 ml per well) was added to the cells. After 4 h at 37° C., a growth medium with 20% FBS (1 ml per well) was added. The cells were treated at 37° C. with compound A (10^−12−10^−5 M) or DMSO for 24 h before stimulation with TNF-α (50 ng/ml) for 6 h.
as §2, §3

Question: What does the source list for `CCOC(=O)c1cccc(NC(=NC#N)NCCCCCCOc2ccc(Cl)cc2)c1` [compound E]?
Answer: IC50 ([1]; cell prints (M), head nM, read-out: IKK activity in vitro (IC50)): > 1e-05 M; IC50 [2]: 597 ± 42 nM; NYH tumor growth in vivo (T/C in %) [3]: −17.1%

Question: `COc1ccc(NC(=NC#N)NCCCCCCOc2ccc(Cl)cc2)cn1` [compound C] was tested. Which IC50 ([1]; read-out: IKK activity in vitro (IC50 nM)) did it give?
Answer: 2.2e-08 ± 2.4e-09 M

Question: What about the IC50 [2] of the same compound?
Answer: 567 ± 127 nM

Question: With TNF-α as the compound, how does the “NF-κB activity increase compared to the control” value [4] read?
Answer: approximately 12 fold

Question: And the “NF-κB activity increase compared to the control” value [5]?
Answer: ~46 fold

Question: And the “effect on the NF-κB activity” value [6]?
Answer: only a small effect
